Experimental data from patent US6893650B1, “N2-phenylamidine derivatives” (Bayer Cropscience GmbH, priority 1999, dated 2005).

System: Leptosphaeria nodorum
Experiment: glume blotch, spray or stem-base drench of test plants, infection visually estimated; note: key: 1 is little or no control; 2 is moderate control; 3 is good to total control
Format: in vivo
Details: concentration of 500 ppm (w/v) or less

SMILES: CCN(C)C=Nc1cc(C)c(Oc2cccc(C(C)(C)C)c2)cc1C [Compound 100]
- score of 1 to 3 (control, degree of infection visually estimated): 2

SMILES: CCN(C)C=Nc1cc(C)c(Oc2cccc(C(F)(F)F)c2)cc1C [Compound 45, N-Ethyl-N-methyl-N′-[4-(3-trifluoromethylphenoxy)-2,5-xylyl]formamidine]
- score of 1 to 3 (control, degree of infection visually estimated): 2

SMILES: Cc1cc(Oc2cccc(C(C)(C)C)c2)c(C)cc1N=CN(C)C(C)C [Compound 283]
- score of 1 to 3 (control, degree of infection visually estimated): 2

SMILES: Cc1cc(Oc2cccc(C(F)(F)F)c2)c(C)cc1N=CN1CCCC1 [Compound 41]
- score of 1 to 3 (control, degree of infection visually estimated): 2

SMILES: Cc1cc(Oc2cccc(C(C)(C)C)c2)c(C)cc1N=CN(C)C [Compound 8]
- score of 1 to 3 (control, degree of infection visually estimated): 2

SMILES: COc1cccc(Oc2cc(C)c(N=CN(C)C)cc2C)c1 [Compound 56]
- score of 1 to 3 (control, degree of infection visually estimated): 2

SMILES: C#CCOc1ccc(Oc2cc(C)c(N=CN(C)C)cc2C)cc1 [Compound 235]
- score of 1 to 3 (control, degree of infection visually estimated): 2

SMILES: Cc1cc(Oc2cccc(C3CCCC3)c2)c(C)cc1N=CN(C)C [Compound 378]
- score of 1 to 3 (control, degree of infection visually estimated): 2

SMILES: CCN(C)C=Nc1cc(C)c(Oc2cccc(OC)c2)cc1C [Compound 312]
- score of 1 to 3 (control, degree of infection visually estimated): 2

SMILES: CCN(C)C=Nc1cc(C)c(Oc2cccc(Oc3ccccc3)c2)cc1C [Compound 325]
- score of 1 to 3 (control, degree of infection visually estimated): 2

SMILES: Cc1cc(Oc2cccc(C(F)(F)F)c2)c(C)cc1N=CN1CCOCC1 [Compound 35]
- score of 1 to 3 (control, degree of infection visually estimated): 2

SMILES: Cc1cc(Oc2nc(-c3ccccc3)ns2)c(C)cc1N=CN(C)C [Compound 48, N,N-Dimethyl-N′-[4-(3-phenyl-1,2,4-thiadiazol-5-yloxy)-2,5-xylyl]formamidine]
- score of 1 to 3 (control, degree of infection visually estimated): 2

SMILES: Cc1cc(Oc2nc3cc(C(F)(F)F)ccc3s2)c(C)cc1N=CN(C)C [Compound 194]
- score of 1 to 3 (control, degree of infection visually estimated): 2

SMILES: Cc1cc(Oc2nc(Br)ns2)c(C)cc1N=CN(C)C [Compound 72]
- score of 1 to 3 (control, degree of infection visually estimated): 2

SMILES: Cc1cc(Oc2cccc(C(F)(F)F)c2)c(C)cc1N=CN1CCCCC1 [Compound 43]
- score of 1 to 3 (control, degree of infection visually estimated): 2

SMILES: Cc1cc(C)nc(Oc2cccc(Oc3cc(C)c(N=CN(C)C)cc3C)c2)n1 [Compound 369]
- score of 1 to 3 (control, degree of infection visually estimated): 2

SMILES: CCN(C)C=Nc1cc(C)c(Oc2ccc(Cl)c(C(F)(F)F)c2)cc1C [Compound 364]
- score of 1 to 3 (control, degree of infection visually estimated): 2

SMILES: CC(=Nc1cc(C)c(SCc2cccc(C(F)(F)F)c2)cc1C)N(C)C [Compound 5]
- score of 1 to 3 (control, degree of infection visually estimated): 2

SMILES: Cc1cc(Oc2nc(-c3ccccc3)ns2)c(C(C)C)cc1N=CN(C)C [Compound 208]
- score of 1 to 3 (control, degree of infection visually estimated): 2

SMILES: COC(C)(C)c1cccc(Oc2cc(C)c(N=CN(C)C)cc2C)c1 [Compound 392]
- score of 1 to 3 (control, degree of infection visually estimated): 2

SMILES: Cc1cc(Oc2cccc(C#N)c2)c(C)cc1N=CN(C)C [Compound 29]
- score of 1 to 3 (control, degree of infection visually estimated): 2

SMILES: CCC(C)(C)c1ccc(Oc2cc(C)c(N=CN(C)C)cc2C)cc1 [Compound 170]
- score of 1 to 3 (control, degree of infection visually estimated): 2

SMILES: CCc1ccc(Oc2cc(C)c(N=CN(C)C)cc2C)cc1 [Compound 181]
- score of 1 to 3 (control, degree of infection visually estimated): 2

SMILES: Cc1cc(OCc2ccc(OCC3CCCCC3)cc2)c(C)cc1N=CN(C)C [Compound 290]
- score of 1 to 3 (control, degree of infection visually estimated): 2

SMILES: CCN(C=Nc1cc(C)c(Oc2cccc(C(F)(F)F)c2)cc1C)CC [Compound 37, N,N-Diethyl-N′-[4-(3-trifluoromethylphenoxy)-2,5-xylyl]formamidine]
- score of 1 to 3 (control, degree of infection visually estimated): 2

SMILES: Cc1cc(Oc2ccc(C(C)(C)C)cc2)c(C)cc1N=CN(C)C [Compound 61]
- score of 1 to 3 (control, degree of infection visually estimated): 2

SMILES: Cc1cc(OC(=O)c2sc3ccccc3c2Cl)c(C)cc1N=CN(C)C [Compound 160]
- score of 1 to 3 (control, degree of infection visually estimated): 2

SMILES: Cc1cc(Oc2cccc(C(F)(F)F)c2)c(C)cc1N=CN(C)C [Compound 1]
- score of 1 to 3 (control, degree of infection visually estimated): 2

SMILES: CCN(C)C=Nc1cc(C)c(Oc2ccc(C(C)C)cc2)cc1C [Compound 311]
- score of 1 to 3 (control, degree of infection visually estimated): 2

SMILES: Cc1cc(Oc2nc(-c3ccccc3)ns2)c(C)cc1N=CN1CCCCC1 [Compound 246]
- score of 1 to 3 (control, degree of infection visually estimated): 2

SMILES: CC(=Nc1cc(C)c(Oc2cccc(C(F)(F)F)c2)cc1C)N(C)C [Compound 2]
- score of 1 to 3 (control, degree of infection visually estimated): 2

SMILES: CCN(C)C=Nc1cc(C)c(Oc2ccc(C(C)(C)C)cc2)cc1C [Compound 326]
- score of 1 to 3 (control, degree of infection visually estimated): 2

SMILES: Cc1cc(Oc2cccc(Cl)c2)c(C)cc1N=CN(C)C [Compound 7]
- score of 1 to 3 (control, degree of infection visually estimated): 2

SMILES: CCNC=Nc1cc(C)c(Oc2cccc(C(F)(F)F)c2)cc1C [Compound 59]
- score of 1 to 3 (control, degree of infection visually estimated): 2

SMILES: Cc1cc(Oc2ccc(OC(C)C)cc2)c(C)cc1N=CN(C)C [Compound 303]
- score of 1 to 3 (control, degree of infection visually estimated): 2

SMILES: C=CCN(C)C=Nc1cc(C)c(Oc2cccc(C(C)(C)C)c2)cc1C [Compound 284]
- score of 1 to 3 (control, degree of infection visually estimated): 2

SMILES: COc1cc(N=CN(C)C)c(Br)cc1Oc1cccc(C(F)(F)F)c1 [Compound 15]
- score of 1 to 3 (control, degree of infection visually estimated): 2

SMILES: COc1ccccc1Oc1cc(C)c(N=CN(C)C)cc1C [Compound 27]
- score of 1 to 3 (control, degree of infection visually estimated): 2

SMILES: CCC(C)c1ccc(Oc2cc(C)c(N=CN(C)C)cc2C)cc1 (stereo not drawn) [Compound 130]
- score of 1 to 3 (control, degree of infection visually estimated): 2

SMILES: Cc1cc(C(C#N)c2cccc(C(F)(F)F)c2)c(C)cc1N=CN(C)C (stereo not drawn) [Compound 214]
- score of 1 to 3 (control, degree of infection visually estimated): 2

SMILES: Cc1cc(Oc2nc(-c3ccc(Cl)c(Cl)c3)cs2)c(C)cc1N=CN(C)C [Compound 351]
- score of 1 to 3 (control, degree of infection visually estimated): 2

SMILES: CCN(C)C=Nc1cc(C)c(Oc2cccc(Cl)c2)cc1C [Compound 310]
- score of 1 to 3 (control, degree of infection visually estimated): 2
